# Assay results: article PMC2581804, “Mycobacterium tuberculosis Glucosyl-3-Phosphoglycerate Synthase: Structure of a Key Enzyme in Methylglucose Lipopolysaccharide Biosynthesis” (PLoS ONE, 2008)
# Biological target: M. tuberculosis GpgS (glucosyl-3-phosphoglycerate synthase) (Mycobacterium tuberculosis, UniProt P9WMW9)
# Sequence (P9WMW9 whole entry): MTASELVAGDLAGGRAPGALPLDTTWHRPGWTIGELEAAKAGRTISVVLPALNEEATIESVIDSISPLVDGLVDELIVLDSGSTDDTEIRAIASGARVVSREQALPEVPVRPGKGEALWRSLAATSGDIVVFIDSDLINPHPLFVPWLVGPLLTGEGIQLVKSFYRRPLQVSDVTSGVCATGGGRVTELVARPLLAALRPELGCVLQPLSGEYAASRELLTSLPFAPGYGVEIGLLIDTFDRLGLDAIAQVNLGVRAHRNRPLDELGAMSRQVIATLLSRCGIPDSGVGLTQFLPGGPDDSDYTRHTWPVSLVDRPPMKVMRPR
compound,measurement,value
O=C(O)[C@H](O)COP(=O)(O)O [3-phosphoglycerate],"X-ray crystal structure of ternary complex, 2.7 A (co-crystallization)",there is clear electron density for the carboxylate region of the bound 3-phosphoglycerate
